Measurements taken from US10717757B2, “Ketolides having antibacterial activity” (BIOPHARMATI SA, priority 2016, dated 2020).
≈ marks a conversion by molar mass, not a printed value. Where “and” joins values, the source holds several entries; their conditions need not be identical. Equal entries are not always repeated.

How the values were obtained:
CYP3A = conditions: in vitro, cited from earlier work
CYP3A4 [1] = biological target: T1, CYP3A4 (Homo sapiens, UniProt P08684); conditions: background statement; cited from earlier work
T1 sequence (P08684 whole entry): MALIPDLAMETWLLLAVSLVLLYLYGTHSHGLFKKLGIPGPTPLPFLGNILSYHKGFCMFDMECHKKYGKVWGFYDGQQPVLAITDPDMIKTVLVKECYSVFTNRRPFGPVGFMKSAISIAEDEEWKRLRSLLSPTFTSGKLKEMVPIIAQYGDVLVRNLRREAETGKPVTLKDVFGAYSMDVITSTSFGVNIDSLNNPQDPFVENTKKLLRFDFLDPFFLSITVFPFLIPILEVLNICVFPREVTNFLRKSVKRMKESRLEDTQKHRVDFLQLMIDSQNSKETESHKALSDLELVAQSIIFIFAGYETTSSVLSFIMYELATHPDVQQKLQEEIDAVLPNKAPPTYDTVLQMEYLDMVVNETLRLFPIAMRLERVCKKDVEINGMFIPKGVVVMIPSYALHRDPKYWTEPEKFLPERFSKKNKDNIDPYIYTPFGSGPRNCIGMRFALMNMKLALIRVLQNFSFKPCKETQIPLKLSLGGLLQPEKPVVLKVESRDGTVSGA

[2] = tested on: S. pneumoniae AUCC479, macrolide & penicillin sensitive; assay: Minimum inhibitory concentration (MIC), broth microdilution, AUCC479; format: cell-based, Streptococcus pneumoniae
Procedure: (§1) Protocols for Determining Minimum Inhibitory Concentration (MIC) of Test Compounds Against Streptococcus Pneumoniae Strains
(§2) The test strains are revived from frozen stock on blood agar plates and incubated at 35±2° C. for 18-20 hours in 5% CO2. Colonies are directly suspended from an overnight grown agar culture in CAMHB/saline and optical density adjusted to 0.5 McFarland turbidity standard (1-2×10^8 cfu/mL). Adjusted cultures are further diluted 1:100 using CAMHB such that after inoculation each well finally contains ˜5×10^5 cfu/mL. For broth dilution testing of Streptococcus species, CAMHB is supplemented with 2.5-5% v/v LHB. Colony counts of inoculum suspension is estimated by ten-fold serial dilutions and plating each dilution on agar plate. After incubation, the plates are observed for growth and microbial counts determined.
(§3) Compounds are weighed and dissolved in water/DMSO/other solvent to yield 1 mg/mL stock solution. Serial two-fold dilutions of the test compounds and reference antibiotics are prepared. 50 μL of the diluted drug solutions are dispensed in wells of microtiter trays (96 well).
(§4) To each of the wells of the microtiter tray, 50 μL of the diluted organism are inoculated to obtain a final inoculum density of ˜5×10^5 cfu/mL. Broth control, compound control and organism control wells are set up.
(§5) MIC testing are done in duplicates
(§6) MIC is defined as the lowest concentration of an antimicrobial agent that prevents visible growth of a microorganism in broth dilution susceptibility test.
(§7) After incubation period, growth of organism in the wells are detected by unaided eye facilitated by a viewing device. The amount of growth in the drug-containing wells are compared with the amount of growth in the organism-control wells.

[3] = tested on: S. pneumoniae AUCC489, macrolide & penicillin resistant; assay: Minimum inhibitory concentration (MIC), broth microdilution, AUCC489; format: cell-based, Streptococcus pneumoniae
Procedure: as §1, §2, §3, §4, §5, §6, §7

P-gp = P-gp (Homo sapiens, UniProt P08183); conditions: background statement; cited from earlier work
Chain of P-gp (P08183 whole entry): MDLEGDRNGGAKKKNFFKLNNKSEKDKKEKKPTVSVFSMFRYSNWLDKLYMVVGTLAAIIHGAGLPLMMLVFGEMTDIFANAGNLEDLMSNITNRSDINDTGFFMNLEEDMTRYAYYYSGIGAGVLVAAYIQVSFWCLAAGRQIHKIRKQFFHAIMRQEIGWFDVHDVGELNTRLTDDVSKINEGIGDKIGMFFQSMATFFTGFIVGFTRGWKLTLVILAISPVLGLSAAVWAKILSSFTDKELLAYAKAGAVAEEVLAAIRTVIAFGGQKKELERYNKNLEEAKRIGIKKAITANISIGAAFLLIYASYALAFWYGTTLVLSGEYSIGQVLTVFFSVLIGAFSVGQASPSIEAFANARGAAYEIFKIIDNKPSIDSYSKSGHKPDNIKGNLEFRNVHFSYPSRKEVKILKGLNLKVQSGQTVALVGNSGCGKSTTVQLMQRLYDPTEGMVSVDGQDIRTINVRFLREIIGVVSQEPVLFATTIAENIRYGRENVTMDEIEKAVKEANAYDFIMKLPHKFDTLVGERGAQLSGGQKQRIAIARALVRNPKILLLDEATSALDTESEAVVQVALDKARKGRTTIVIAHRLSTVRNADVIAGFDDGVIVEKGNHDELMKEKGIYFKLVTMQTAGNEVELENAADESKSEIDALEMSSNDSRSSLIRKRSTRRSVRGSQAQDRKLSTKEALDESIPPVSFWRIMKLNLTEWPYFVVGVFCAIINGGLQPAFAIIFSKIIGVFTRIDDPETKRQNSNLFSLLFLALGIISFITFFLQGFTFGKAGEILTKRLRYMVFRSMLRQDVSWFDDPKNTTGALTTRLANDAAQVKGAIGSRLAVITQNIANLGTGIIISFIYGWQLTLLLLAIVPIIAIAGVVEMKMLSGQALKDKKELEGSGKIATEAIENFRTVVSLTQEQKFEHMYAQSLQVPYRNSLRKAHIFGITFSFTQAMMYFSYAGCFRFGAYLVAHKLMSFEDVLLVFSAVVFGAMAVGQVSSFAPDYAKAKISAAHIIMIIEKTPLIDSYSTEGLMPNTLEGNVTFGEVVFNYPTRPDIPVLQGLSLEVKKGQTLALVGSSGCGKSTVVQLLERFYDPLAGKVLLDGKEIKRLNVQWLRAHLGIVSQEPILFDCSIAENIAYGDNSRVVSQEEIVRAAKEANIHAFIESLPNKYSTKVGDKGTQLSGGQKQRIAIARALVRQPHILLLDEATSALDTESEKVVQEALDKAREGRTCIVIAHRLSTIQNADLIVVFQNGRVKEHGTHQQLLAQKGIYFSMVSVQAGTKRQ

[4] = tested on: S. pneumoniae AUCC488, macrolide & penicillin resistant; assay: Minimum inhibitory concentration (MIC), broth microdilution, AUCC488; format: cell-based, Streptococcus pneumoniae
Procedure: as §1, §2, §3, §4, §5, §6, §7

[5] = tested on: S. pneumoniae ATCC 49619 (CLSI QC strain); assay: Minimum inhibitory concentration (MIC), broth microdilution, QC strain; format: cell-based, Streptococcus pneumoniae; conditions: MIC in duplicates
Procedure: as §1, §2, §3, §4, §5, §6, §7

CYP3A4 [6] = biological target: T1, CYP3A4; assay: biochemical
Procedure: (§8) Cytochrome P4503A4 Inhibition Assay for Determining IC50
(§9) The potential of the compound to inhibit CYP 3A4 was tested by the LC-MS/MS based probe substrate method using human liver microsomes. Midazolam or testosterone, which are metabolized to hydroxymidazolam or hydroxytestosterone by CYP 3A4, were the probe substrates used. […] NADPH was added as the cofactor. […] After incubation for ten minutes, the amount of 1-hydroxymidazolam or 6β-hydroxyltestosterone formed was determined by LC-MS/MS method as a measure of enzyme activity. Percent inhibition of enzyme activity was calculated based on the amount of metabolites (1-hydroxymidazolam or 6β-hydroxyltestosterone) formed for each sample relative to the basal control and plotted in a curve versus the compound concentration to obtain the IC50.

[7] = tested on: S. pneumoniae AUCC483, macrolide resistant & penicillin sensitive; assay: Minimum inhibitory concentration (MIC), broth microdilution, AUCC483; format: cell-based, Streptococcus pneumoniae
Procedure: as §1, §2, §3, §4, §5, §6, §7

CYP3A4 [8] = biological target: T1, CYP3A4; assay: Cytochrome P4503A4 inhibition assay, human liver microsomes, LC-MS/MS probe substrate method; conditions: for IC50: human liver microsomes 0.1 mg/mL, 10 min; for CYP3A4 inhibition in comparison with solithromycin and ketoconazole: summary of Table 1
Procedure: as §8, §9

[9] = Oral bioavailability and tissue distribution after a single oral treatment; format: in vivo
[10] = tested on: macrolide-resistant S. pneumoniae strains; assay: Mouse lung infection models; format: in vivo
[11] = read-out: IC50 CYP3A4 (midazolam), 5 μM midazolam

Molecule | IC50 (CYP3A; Katz et al / FDA briefing document, read-out: IC50 of CYP3A-dependent nifedipine oxidation) [µM] | IC50 of CYP3A-dependent nifedipine oxidation (CYP3A; same value in ng/mL) [mg/L] | inhibition of CYP3A4 (CYP3A4 [1]) | MIC Strep. Pneumoniae AUCC 479 penS, macS [2] [mg/L] | MIC Strep. Pneumoniae AUCC 489 penR, macR cMLS [3] [mg/L] | inhibition of P-gp (P-gp) | MIC Strep. Pneumoniae AUCC 488 penR, macR M or iMLS [4] [mg/L] | MIC ([5]; Streptococcus pneumoniae, ATCC49619 QC strain, read-out: MIC Strep. Pneumoniae ATCC49619 QC strain) [mg/L] | IC50 (CYP3A4 [6]) | MIC Strep. Pneumoniae AUCC 483 penS, macR cMLS [7] [mg/L] | MIC Strep. Pneumoniae ATCC49619 QC strain [5] [mg/L] | IC50 (CYP3A4 [8]; [11]) [µM] | CYP3A4 inhibition in comparison with solithromycin and ketoconazole (CYP3A4 [8]) | IC50 (CYP3A4 [8]; read-out: IC50 CYP3A4 (testosterone), 50 μM testosterone) [µM] | time drug level in the lungs remained elevated ([9]; lungs, after a single oral treatment) | oral bioavailability ([9]; oral) | tissue distribution ([9]; oral) | efficacy in mouse lung infection models [10]
CC[C@H]1OC(=O)[C@H](C)C(=O)[C@H](C)[C@@H](O[C@@H]2O[C@H](C)C[C@H](N(C)C)[C@H]2O)[C@](C)(OC/C=C/c2cnc3ccccc3c2)C[C@@H](C)C(=O)[C@H](C)[C@H]2NC(=O)O[C@@]21C [cethromycin] | 0.63 | 0.4825 | strong inhibition |  |  |  |  |  |  |  |  |  |  |  |  |  |  | 
CC[C@H]1OC(=O)[C@@](C)(F)C(=O)[C@H](C)[C@@H](O[C@@H]2O[C@H](C)C[C@H](N(C)C)[C@H]2O)[C@](C)(OC)C[C@@H](C)C(=O)[C@H](C)[C@H]2N(CCCCn3cc(-c4cccc(N)c4)nn3)C(=O)O[C@]12C [solithromycin, reference compound] |  |  | strong inhibitor | 0.004 to 0.015 | 0.004 to 0.008 | moderate inhibitor | 0.06 to 0.25 | 0.004 to 0.015 (≈ 0.00473 to 0.0178 µM) | 0.4 µM and 1.49 µM | 0.008 to 0.015 |  |  |  |  |  |  |  | 
(3aS,4R,7R,9R,10R,11R,13R,15R,15aR)-10-{[(2S,3R,4S,6R)-4-(dimethylamino)-3-hydroxy-6-methyloxan-2-yl]oxy}-4-ethyl-1-{[(2R)-1-ethylpyrrolidin-2-yl]methyl}-3a,7,9,11,13,15-hexamethyl-11-{[(2E)-3-(quinolin-3-yl)prop-2-en-1-yl]oxy}-tetradecahydro-1H-oxacyclotetradeca[4,3-d][1,3]oxazole-2,6,8,14-tetrone [Compound 13D] |  |  |  | 0.015 to 0.03 | 0.12 to 0.25 |  | 0.25 to 0.5 |  |  | 0.25 to 0.5 | 0.03 to 0.06 | 2.9 | lower IC50 inhibition of CYP3A4 inhibition |  |  |  |  | 
CC[C@H]1OC(=O)[C@H](C)C(=O)[C@H](C)[C@@H](O[C@@H]2O[C@H](C)C[C@H](N(C)C)[C@H]2O)[C@](C)(OC/C=C/c2cnc3ccccc3c2)C[C@@H](C)C(=O)[C@H](C)[C@H]2N(CC#N)C(=O)O[C@]12C [Compound 13H, 2-[(3aS,4R,7R,9R,10R,11R,13R,15R,15aR)-10-{[(2S,3R,4S,6R)-4-(dimethylamino)-3-hydroxy-6-methyloxan-2-yl]oxy}-4-ethyl-3a,7,9,11,13,15-hexamethyl-2,6,8,14-tetraoxo-11-{[(2E)-3-(quinolin-3-yl)prop-2-en-1-yl]oxy}-tetradecahydro-1H-oxacyclotetradeca[4,3-d][1,3]oxazol-1-yl]acetonitrile] |  |  |  | 0.008 to 0.015 | 0.25 to 1 |  | 0.25 to 1 |  |  | 2 to 4 | 0.03 to 0.06 | 1.9 | lower IC50 inhibition of CYP3A4 inhibition |  |  |  |  | 
(3aS,4R,7R,9R,10R,11R,13R,15R,15aR)-10-{[(2S,3R,4S,6R)-4-(dimethylamino)-3-hydroxy-6-methyloxan-2-yl]oxy}-4-ethyl-3a,7,9,11,13,15-hexamethyl-1-[3-(morpholin-4-yl)propyl]-11-{[(2E)-3-(quinolin-3-yl)prop-2-en-1-yl]oxy}-tetradecahydro-1H-oxacyclotetradeca[4,3-d][1,3]oxazole-2,6,8,14-tetrone [Compound 13J] |  |  |  | 0.03 to 0.06 | 1 to 2.0 |  | 1 |  |  | 0.5 to 2 | 0.06 to 0.12 | 5.9 | lower IC50 inhibition of CYP3A4 inhibition |  |  |  |  | 
CCC1OC(=O)C(C)C(=O)C(C)C(OC2OC(C)CC(N(C)C)C2O)C(C)(OCC=Cc2cnc3ccccc3c2)CC(C)C(=O)C(C)C2N(CC3CCN(C)C3)C(=O)OC12C [Compound 13N, (3aS,4R,7R,9R,10R,11R,13R,15R,15aR)-10-{[(2S,3R,4S,6R)-4-(dimethylamino)-3-hydroxy-6-methyloxan-2-yl]oxy}-4-ethyl-3a,7,9,11,13,15-hexamethyl-1-{[(3S)-1-methylpyrrolidin-3-yl]methyl}-11-{[(2E)-3-(quinolin-3-yl)prop-2-en-1-yl]oxy}-tetradecahydro-1H-oxacyclotetradeca[4,3-d][1,3]oxazole-2,6,8,14-tetrone] |  |  |  | 0.03 (≈ 0.0348 µM) | 0.5 to 1 |  | 0.5 to 1 |  |  | 0.5 to 1 | 0.03 to 0.06 |  | lower IC50 inhibition of CYP3A4 inhibition | 7.7 |  |  |  | 
(3aS,4R,7R,9R,10R,11R,13R,15R,15aR)-10-{[(2S,3R,4S,6R)-4-(dimethylamino)-3-hydroxy-6-methyloxan-2-yl]oxy}-4-ethyl-1-{2-[ethyl(methyl)amino]ethyl}-3a,7,9,11,13,15-hexamethyl-11-{[(2E)-3-(quinolin-3-yl)prop-2-en-1-yl]oxy}-tetradecahydro-1H-oxacyclotetradeca[4,3-d][1,3]oxazole-2,6,8,14-tetrone [Compound 13G] |  |  |  | 0.03 to 0.06 | 0.5 to 1 |  | 0.5 to 1 |  |  | 1 to 2 | 0.12 to 0.25 | 8.8 | lower IC50 inhibition of CYP3A4 inhibition |  |  |  |  | 
(3aS,4R,7R,9R,10R,11R,13R,15R,15aR)-10-{[(2S,3R,4S,6R)-4-(dimethylamino)-3-hydroxy-6-methyloxan-2-yl]oxy}-4-ethyl-3a,7,9,11,13,15-hexamethyl-1-[2-(pyrrolidin-1-yl)ethyl]-11-{[(2E)-3-(quinolin-3-yl)prop-2-en-1-yl]oxy}-tetradecahydro-1H-oxacyclotetradeca[4,3-d][1,3]oxazole-2,6,8,14-tetrone [Compound 13I] |  |  |  | 0.015 to 0.03 | 0.25 to 1 |  | 0.25 to 0.5 |  |  | 0.25 to 1 | 0.03 to 0.06 | 2.1 | lower IC50 inhibition of CYP3A4 inhibition |  |  |  |  | 
(3aS,4R,7R,9R,10R,11R,13R,15R,15aR)-10-{[(2S,3R,4S,6R)-4-(dimethylamino)3-hydroxy-6-methyloxan-2-yl]oxy}-1-[3-(dimethylamino)propyl]-4-ethyl-3a,7,9,11,13,15-hexamethyl-11-{[(2E)-3-(quinolin-3-yl)prop-2-en-1-yl]oxy}tetradecahydro-1H-oxacyclotetradeca[4,3-d][1,3]oxazole-2,6,8,14-tetrone [Compound 13B] |  |  |  | 0.008 to 0.015 | 0.12 to 0.25 |  | 0.12 to 0.25 |  |  | 0.12 to 0.25 | 0.015 to 0.03 | 6.4 | lower IC50 inhibition of CYP3A4 inhibition |  | at least 8 hours | excellent | excellent | demonstrated efficacy
